We go through 46 compounds from patent publication US20260085073A1, “PYRAZOLYLCARBOXAMIDE COMPOUNDS AND THEIR USE IN THERAPY” (Hotspot Therapeutics, Inc., priority 2022, published 2026).

The target of this test is T1, MALT1 (Homo sapiens, UniProt Q9UDY8).
T1 construct: Avi-tagged FL MALT-1 (Pharmaron, stored at −70° C.); Avi-tag
T1 sequence (Q9UDY8 1-824): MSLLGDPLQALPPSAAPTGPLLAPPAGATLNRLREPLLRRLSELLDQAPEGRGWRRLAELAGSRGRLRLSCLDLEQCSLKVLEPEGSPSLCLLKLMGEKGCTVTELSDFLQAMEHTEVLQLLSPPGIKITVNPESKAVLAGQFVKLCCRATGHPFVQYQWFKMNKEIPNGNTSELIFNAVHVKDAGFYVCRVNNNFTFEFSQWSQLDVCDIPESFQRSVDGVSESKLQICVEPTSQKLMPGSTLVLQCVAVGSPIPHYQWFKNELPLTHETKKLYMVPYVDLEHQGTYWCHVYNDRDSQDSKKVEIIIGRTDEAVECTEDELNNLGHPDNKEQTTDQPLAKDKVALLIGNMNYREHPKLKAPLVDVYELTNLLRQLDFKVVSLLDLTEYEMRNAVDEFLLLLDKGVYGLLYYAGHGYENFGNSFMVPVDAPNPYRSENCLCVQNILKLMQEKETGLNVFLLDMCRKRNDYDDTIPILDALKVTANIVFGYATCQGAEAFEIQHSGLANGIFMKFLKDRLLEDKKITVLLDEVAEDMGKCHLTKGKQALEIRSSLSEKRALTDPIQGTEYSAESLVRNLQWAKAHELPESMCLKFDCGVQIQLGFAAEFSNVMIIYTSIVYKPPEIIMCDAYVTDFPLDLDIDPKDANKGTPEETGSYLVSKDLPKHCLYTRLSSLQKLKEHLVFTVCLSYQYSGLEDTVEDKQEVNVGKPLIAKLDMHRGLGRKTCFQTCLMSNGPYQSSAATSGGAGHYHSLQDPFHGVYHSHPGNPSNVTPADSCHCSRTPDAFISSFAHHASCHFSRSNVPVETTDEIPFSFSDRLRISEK
Description: MALT1 inhibition assay (MALT-1 Fluorogenic Peptide Cleavage Assay, Ac-LRSR-AMC substrate). In kind it is biochemical. As to conditions: Avi-tagged FL MALT-1, 30 min pre-incubation, 90 min reaction at room temperature, fluorescence intensity. In a few lines:
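Full-length Avi-tagged MALT1 pre-incubated 30 min at room temperature with compounds (2% DMSO final) in HEPES pH 6.89, sodium citrate, TCEP, EDTA, CHAPS buffer. Ac-LRSR-AMC added from 50 µM (Km) or […] working stocks; 90 min at room temperature, AMC fluorescence (ex 342/em 441 nm); IC50 from % inhibition curves.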
Broadly, the IC50 is the concentration that inhibits the measured activity by half. For the compound `Cn1nc(-c2ccc(F)c(N)n2)c(C(F)(F)F)c1C(=O)Nc1ccnc(C(F)(F)F)c1` [Compound I-196, 3-(6-amino-5-fluoropyridin-2-yl)-1-methyl-4-(trifluoromethyl)-N-(2-(trifluoromethyl)pyridin-4-yl)-1H-pyrazole-5-carboxamide], the IC50 was 500 to 2500 nM.

As for `Cn1nc(-c2cccc3c2CCNC3)c(C(F)(F)F)c1C(=O)Nc1ccnc(C(F)(F)F)c1` [Compound I-197], the 50% inhibitory concentration (IC50) is > 10000 nM.

Take `Cn1nc(-c2cc(N)ncc2Cl)c(C(F)(F)F)c1C(=O)Nc1ccnc(C(F)(F)F)c1` [Compound I-198]: the IC50 was < 500 nM.

On to `COc1c(-c2nn(C)c(C(=O)Nc3ccnc(C(F)(F)F)c3)c2C(F)(F)F)ccnc1N` [Compound I-199], for which the IC50 fell in the range of 2500 to 10000 nM.

Consider `Cn1nc(C2CCNCC2)c(C(F)(F)F)c1C(=O)Nc1ccnc(C(F)(F)F)c1` [Compound I-200], for which the IC50 is > 10000 nM.

Turning to `Cn1nc(-c2n[nH]c3cnccc23)c(C(F)(F)F)c1C(=O)Nc1ccnc(C(F)(F)F)c1` [Compound I-201], the IC50 is > 10000 nM.

With `Cn1nc(-c2c[nH]c3ncncc23)c(C(F)(F)F)c1C(=O)Nc1ccnc(C(F)(F)F)c1` [Compound I-202, 1-methyl-3-(7H-pyrrolo[2,3-d]pyrimidin-5-yl)-4-(trifluoromethyl)-N-(2-(trifluoromethyl)pyridin-4-yl)-1H-pyrazole-5-carboxamide], the IC50 was > 10000 nM.

The compound `Cn1nc(-c2ccccc2CC(F)(F)F)cc1C(=O)Nc1ccnc(C(F)(F)F)c1` [Compound I-203, 1-methyl-3-(2-(2,2,2-trifluoroethyl)phenyl)-N-(2-(trifluoromethyl)pyridin-4-yl)-1H-pyrazole-5-carboxamide] displayed an IC50 of 2500 to 10000 nM.

In turn, `Cn1nc(C(=O)Nc2ccnc(C(F)(F)F)c2)c(C2CC2)c1-c1ccccc1` [Compound I-204, 4-cyclopropyl-1-methyl-5-phenyl-N-(2-(trifluoromethyl)pyridin-4-yl)-1H-pyrazole-3-carboxamide] had an IC50 of 2500 to 10000 nM.

For the compound `Cn1nc(-c2ccccc2)c(C2CC2)c1C(=O)Nc1ccnc(C(F)(F)F)c1` [Compound I-205], the IC50 fell in the range of 500 to 2500 nM.

`Cn1nc(Oc2ccccc2)c(C(F)(F)F)c1C(=O)Nc1ccnc(C(F)(F)F)c1` [Compound I-206]: the IC50 is 500 to 2500 nM.

On to `Cn1nc(-c2ccccc2)cc1C(=O)Nc1ccc(C(=O)N2CC(O)C2)c(Cl)c1` [Compound I-207], for which the IC50 is > 10000 nM.

On to `Cn1nc(COc2ccccc2)c(C(F)(F)F)c1C(=O)Nc1ccnc(C(F)(F)F)c1` [Compound I-208], for which the IC50 lay in the range of 2500 to 10000 nM.

`CN(c1ccccc1)c1nn(C)c(C(=O)Nc2ccnc(C(F)(F)F)c2)c1C(F)(F)F` [Compound I-209]: the IC50 fell in the range of 500 to 2500 nM.

Consider `Cn1nc(-c2cccc3nscc23)c(C(F)(F)F)c1C(=O)Nc1ccnc(C(F)(F)F)c1` [Compound I-210, 3-(benzo[c]isothiazol-4-yl)-1-methyl-4-(trifluoromethyl)-N-(2-(trifluoromethyl)pyridin-4-yl)-1H-pyrazole-5-carboxamide], for which the IC50 is < 500 nM.

Take `O=C(Nc1cnc(-n2nccn2)c(Cl)c1)c1c(C(F)(F)F)c(-c2ccccc2)nn1CCO` [Compound I-211, N-(5-chloro-6-(2H-1,2,3-triazol-2-yl)pyridin-3-yl)-1-(2-hydroxyethyl)-3-phenyl-4-(trifluoromethyl)-1H-pyrazole-5-carboxamide]: the IC50 lay in the range of 2500 to 10000 nM.

`Cn1nc(-c2cccc3ncn(C)c23)c(C(F)(F)F)c1NC(=O)c1ccnc(C(F)(F)F)c1` [Compound I-221, N-(1-methyl-3-(1-methyl-1H-benzo[d]imidazol-7-yl)-4-(trifluoromethyl)-1H-pyrazol-5-yl)-2-(trifluoromethyl)isonicotinamide] had an IC50 of 2500 to 10000 nM.

In the case of `Cn1nc(-c2cccc3nccn23)c(C(F)(F)F)c1C(=O)Nc1cnc(-n2nccn2)c(C(F)(F)F)c1` [Compound I-222], the IC50 was < 500 nM.

`Cc1ccc2ncsc2c1-c1nn(C)c(C(=O)Nc2ccnc(C(F)(F)F)c2)c1C(F)(F)F` [Compound I-223] yielded an IC50 of 500 to 2500 nM.

For the compound `Cn1nc(-c2cccc3cncn23)c(C(F)(F)F)c1C(=O)Nc1ccnc(C(F)(F)F)c1` [Compound I-224], the IC50 was in the range of 500 to 2500 nM.

For the compound `Cn1nc(-c2cnc3cnccn23)c(C(F)(F)F)c1C(=O)Nc1ccnc(C(F)(F)F)c1` [Compound I-225], the IC50 was > 10000 nM.

As to `Cc1nc2cccc(-c3nn(C)c(C(=O)Nc4ccnc(C(F)(F)F)c4)c3C(F)(F)F)c2s1` [Compound I-226], the IC50 was > 10000 nM.

With `Cn1nc(-c2cccc3nccn23)c(C(F)(F)F)c1C(=O)Nc1ccnc(C2CC2)c1` [Compound I-227, N-(2-cyclopropylpyridin-4-yl)-3-(imidazo[1,2-a]pyridin-5-yl)-1-methyl-4-(trifluoromethyl)-1H-pyrazole-5-carboxamide], the IC50 fell in the range of 2500 to 10000 nM.

Take `Cc1cc(-c2nn(C)c(C(=O)Nc3ccnc(C(F)(F)F)c3)c2C(F)(F)F)n2ccnc2c1` [Compound I-228]: the IC50 is > 10000 nM.

On to `Cc1cn2c(-c3nn(C)c(C(=O)Nc4ccnc(C(F)(F)F)c4)c3C(F)(F)F)cccc2n1` [Compound I-229], for which the IC50 lay within 2500 to 10000 nM.

In turn, `Cn1nc(-c2cncc3ccsc23)c(C(F)(F)F)c1C(=O)Nc1ccnc(C(F)(F)F)c1` [Compound I-230] had an IC50 of 500 to 2500 nM.

As to `Cn1nc(-c2n[nH]c3ncncc23)c(C(F)(F)F)c1C(=O)Nc1ccnc(C(F)(F)F)c1` [Compound I-231], the IC50 is > 10000 nM.

For `COc1ccc2ncsc2c1-c1nn(C)c(C(=O)Nc2ccnc(C(F)(F)F)c2)c1C(F)(F)F` [Compound I-232], the IC50 was < 500 nM.

In turn, `Cn1nc(-c2cccn3nncc23)c(C(F)(F)F)c1C(=O)Nc1ccnc(C(F)(F)F)c1` [Compound I-233] registered a 50% inhibitory concentration (IC50) of 2500 to 10000 nM.

For the compound `Cn1nc(-c2ccc(F)c3ncsc23)c(C(F)(F)F)c1C(=O)Nc1ccnc(C(F)(F)F)c1` [Compound I-234], the IC50 is > 10000 nM.

On to `Cn1nc(-c2cccc3ncsc23)c(C(F)(F)F)c1C(=O)Nc1ccc(C(=O)N2CC(O)C2)c(Cl)c1` [Compound I-235], for which the IC50 lay in the range of 500 to 2500 nM.

In turn, `Cn1nc(-c2cccc3cnoc23)c(C(F)(F)F)c1C(=O)Nc1ccnc(C(F)(F)F)c1` [Compound I-236] returned an IC50 of 2500 to 10000 nM.

Turning to `Cn1nc(-c2nccc3ccsc23)c(C(F)(F)F)c1C(=O)Nc1ccnc(C(F)(F)F)c1` [Compound I-237], the IC50 fell in the range of 500 to 2500 nM.

`Cc1ccc(-c2nn(C)c(C(=O)Nc3ccnc(C(F)(F)F)c3)c2C(F)(F)F)n2ccnc12` [Compound I-238]: the half-maximal inhibitory concentration (IC50) fell in the range of 2500 to 10000 nM.

Consider `Cn1nc(-c2n[nH]c3ccncc23)c(C(F)(F)F)c1C(=O)Nc1ccnc(C(F)(F)F)c1` [Compound I-239], for which the half-maximal inhibitory concentration (IC50) was > 10000 nM.

`Cn1nc(-c2cccc3ncccc23)c(C(F)(F)F)c1C(=O)Nc1ccc(C(=O)N2CC(O)C2)c(Cl)c1` [Compound I-240]: the IC50 lay within 2500 to 10000 nM.

The compound `Cn1nc(-c2cccc3nccn23)c(C(F)(F)F)c1C(=O)Nc1ccc(C(=O)N2CC(O)C2)c(Cl)c1` [Compound I-241, N-(3-Chloro-4-(3-hydroxyazetidine-1-carbonyl)phenyl)-3-(imidazo[1,2-a]pyridin-5-yl)-1-methyl-4-(trifluoromethyl)-1H-pyrazole-5-carboxamide] returned an IC50 of 2500 to 10000 nM.

In turn, `Cn1nc(-c2n[nH]c3ncccc23)c(C(F)(F)F)c1C(=O)Nc1ccnc(C(F)(F)F)c1` [Compound I-242] showed an IC50 of 2500 to 10000 nM.

Regarding `Cn1nc(-c2cccc3[nH]c(=O)sc23)c(C(F)(F)F)c1C(=O)Nc1ccnc(C(F)(F)F)c1` [Compound I-243], the IC50 fell in the range of 500 to 2500 nM.

With `Cn1nc(-c2nsc3ccccc23)c(C(F)(F)F)c1C(=O)Nc1ccnc(C(F)(F)F)c1` [Compound I-244], the IC50 fell in the range of 500 to 2500 nM.

The compound `Cn1nc(-c2cc(Cl)cc3nccn23)c(C(F)(F)F)c1C(=O)Nc1ccnc(C(F)(F)F)c1` [Compound I-245] yielded an IC50 of 500 to 2500 nM.

In turn, `Cn1nc(-c2cccc3oncc23)c(C(F)(F)F)c1C(=O)Nc1ccnc(C(F)(F)F)c1` [Compound I-246] had an IC50 of 2500 to 10000 nM.

The compound `Cn1nc(-c2ccnc3nccn23)c(C(F)(F)F)c1C(=O)Nc1ccnc(C(F)(F)F)c1` [Compound I-247] displayed an IC50 of 500 to 2500 nM.

`Cn1nc(-c2ccc(Cl)c3nccn23)c(C(F)(F)F)c1C(=O)Nc1ccnc(C(F)(F)F)c1` [Compound I-248]: the IC50 was > 10000 nM.

`Cn1nc(-c2cccc3[nH]c(=O)ccc23)c(C(F)(F)F)c1C(=O)Nc1ccnc(C(F)(F)F)c1` [Compound I-249] returned an IC50 of 2500 to 10000 nM.

Compound `Cn1nc(-c2cccc3ncc(F)cc23)c(C(F)(F)F)c1C(=O)Nc1ccnc(C(F)(F)F)c1` [Compound I-250] yielded an IC50 of 500 to 2500 nM.
